We go through 5 compounds from patent US6765128B1, “Method of using a pathogen-activatable map kinase to enhance disease resistance in plants” (priority 1998, dated 2004).

The test system of one test is SIPK. Conditions: Zhang & Klessig, 1997; cited from earlier work.
The subject of test [1] is WIPK-encoded 44-kD kinase. In words: Phosphatase treatment of protein extracts, then in-gel kinase activity assay. The format is biochemical, tobacco. To be noted: okadaic acid 1 μM; Na3VO4 1 mM. The procedure:
(§1) In-gel kinase activity assay. The in-gel kinase activity assay was performed as described previously (zhang & Klessig, 1997). The relative kinase activity were quantitated using a PhosphorImager (Molecular Dynamics Inc., Sunnyvale, Calif.) and normalized to the level present at the zero time point for the 48-kD kinase, which was given a value of 1.
(§2) Treatment of protein extracts with phosphatases. Protein extracts were prepared in the absence of phosphatase inhibitors from TMV-infected leaves at 8 hr after shifting plants from 32° C. to 22° C. or 48 hr after infection at 22° C. Samples containing 20 μg of protein were treated with either the serine/threonine-specific phosphatase, PP-2A1 (0.25 units in 30 μL; Upstate Biotechnology, Lake Placid, N.Y.), or the tyrosine-specific protein phosphatase, YOP (2 units in 30 μL; NEB), for 20 min at 30° C. in the presence or absence of a phosphatase inhibitor. The PP-2A1 inhibitor, okadaic acid, and YOP inhibitor, Na3VO4 were used at a concentration of 1 μM and 1 mM, respectively. After phosphatase treatment, kinase activity was detected by the in-gel kinase activity assay.

The next test has as its system 48-kD SIPK. Described as above. Type of test: biochemical, tobacco. Conditions: okadaic acid 1 μM; Na3VO4 1 mM. As to the method: as §1, §2
The test system of a further test is His-tagged WIPK protein. In words: Immunoblot analysis of Ab-p44N against a panel of His-tagged MAP kinases. The format is binding, tobacco. To be noted: 0.2 μg/mL competitor peptide. The procedure:
Antibody production and immunoblot analysis. The peptides p44N (MADANMGAGGGQFPDFPS; SEQ ID NO: 2) and p48N ([…]; SEQ ID NO: 3), which correspond respectively to the unique N-termini of the WIPK and the SIPK proteins, were synthesized and conjugated to keyhole limpet hemacyanin (KLH) carrier. Polyclonal antisera were raised in rabbits and purified by affinity column chromatography (Zymed Laboratory, South San Francisco, Calif.).
For immunoblot analysis, 20 μg of total protein per lane were separated on 10% SDS-polyacrylamide gels, and the proteins were transferred to nitrocellulose membranes (Schleicher & Schuell, Inc., Keene, N.H.) by semi-dry electroblotting. […]
The 44-kD kinase activated by TWV in encoded by WIPK. […] The specificity of the Ab-p44N was assessed by immunoblot analysis against a panel of different MAP kinases as described above for Ab-p48N.
(In general: Immunoblotting shows a protein as a band on a membrane.)

Turning to `O=C(O)c1ccccc1O` [SA, salicylic acid], the “Activation of SIPK by treatment” value with SIPK is “activated”.
As to `C=C1[C@@H](O)[C@@H]2O[C@]3(CC[C@H](/C=C/[C@@H](C)[C@@H]4CC(C)=C[C@@]5(O[C@H](C[C@@](C)(O)C(=O)O)CC[C@H]5O)O4)O3)CC[C@H]2O[C@@H]1[C@@H](O)C[C@H](C)[C@H]1O[C@@]2(CCCCO2)CC[C@H]1C` [okadaic acid], the “Effect of phosphatase inhibitor on inactivation of WIPK by PP-2A1 and YOP” value in test [1] was “prevented”. Moreover, the “Effect of phosphatase inhibitor on inactivation of SIPK by PP-2A1 and YOP” value in the test with 48-kD SIPK is listed as “prevented”.
With `[Na+].[Na+].[Na+].[O]=[V]([O-])([O-])[O-]` [vanadate, Na3VO4], in test [1], the “Effect of phosphatase inhibitor on inactivation of WIPK by PP-2A1 and YOP” value is listed as “prevented”. The “Effect of phosphatase inhibitor on inactivation of SIPK by PP-2A1 and YOP” value with 48-kD SIPK is “prevented”.
As to MADANMGAGGGQFPDFPS [p44N], the “Effect of competitor peptide on binding of Ab-p44N to His-tagged WIPK protein” value in the test on His-tagged WIPK protein was “blocked binding”.
Still for that read-out and setting: in the case of “MDGSGQQTDTMMSDAGAEQPPTAP [p48N, peptide corresponding to the unique N-terminus of SIPK]” it was “not”.
